{"source": "patent US6509325B1", "about": "“Method for inhibiting melanogenesis and uses thereof” (priority 2000, dated 2003)", "key": {"[1]": {"system": "Cryptococcus neoformans serotype D strain 24067", "assay": "Glyphosate inhibition of C. neoformans growth (turbidity, 96-well plates)", "format": "cell-based", "settings": "after 72 h of incubation, 30° C., Sab, visual turbidity", "method": "Cryptococcus neoformans serotype D strain 24067 was obtained from the American Type Culture Collection (Rockville, Md.), and grown overnight at 30° C. with shaking in Sabouraud dextrose media (Sab) obtained from Difco Laboratories (Detroit, Mich.). Cells were collected and washed three times with phosphate-buffered saline (PBS: 0.137 M NaCl and 0.003 M sodium phosphate; pH 7.4). A suspension of 250 organisms per 1 ml of Sab was made. Glyphosate was obtained from the Sigma Chemical Co. (St. Louis, Mo.). […] Each concentration was tested in triplicate. The plates were incubated at 30° C., and growth was assayed visually for turbidity after 72 h."}, "[2]": {"system": "melanization in C. neoformans", "assay": "Effect of sub-inhibitory glyphosate on melanization of C. neoformans cultures with L-dopa", "format": "cell-based, Cryptococcus neoformans", "settings": "1 mM L-dopa; for Melanization: control without glyphosate day 7", "method": "Positive melanin controls were cultures containing L-dopa without glyphosate; negative controls were cultures lacking both L-dopa and glyphosate. All cultures were grown in duplicate. The cultures were examined visually for melanization. The growth rate of the cells in each culture was determined by counting, with a hemocytometer, the number of cells per ml at various times after the initiation of the culture."}, "[3]": {"system": "autopolymerization of L-dopa to melanin", "assay": "Autopolymerization of L-dopa to melanin (spectrophotometry)", "method": "In solution, L-dopa slowly autopolymerizes to form melanin [20]. […] The samples were left on the benchtop at room temperature. An Ultraspec 2000 spectrophotometer (Pharmacia Biotech, Cambridge, England) was used to assess absorption at 270λ after 3 days and 20 days. […] A freshly-prepared solution of the same concentrations was tested for comparison."}, "[4]": {"system": "C. neoformans strain 24067", "assay": "Survival of BALB/c mice infected with C. neoformans", "format": "in vivo", "settings": "for survival advantage: oral", "method": "(§1) Cryptococcus neoformans cells were collected as described above. BALB/c mice (National Cancer Institute (NCI), Bethesda, Md.), 6-8 weeks old, were injected intravenously (i.v.) by the tail veins with 1×10^6 organisms. […] In experiment A, uninfected control mice were injected with glyphosate at the same time intervals. […] Forty-four days after infection, the A/J Cr mice were killed, and the lungs were isolated and homogenized in 5 ml of PBS. 100 μl of 1/100 and 1/1000 dilutions of the homogenates in PBS were then plated on Sab agar. Colony-forming units (CFUs) were determined after incubation of the plates at 30° C. for 48 h (1 colony=1 CFU). […] Control mice were injected with PBS instead of glyphosate.\nData analysis was performed using SPSS version 8. Student's T-test and Kaplan-Meier survival analysis were utilized."}, "C. neoformans": {"system": "C. neoformans", "assay": "Lung CFUs in A/J Cr mice infected with C. neoformans", "format": "in vivo", "settings": "1 mg glyphosate i.p. at 24, 48, 72 h, 44 days after infection, n=13, controls 9.63±0.21, p=0.004", "method": "as §1"}}, "data": [{"smiles": "O=C(O)CNCP(=O)(O)O", "note": "[glyphosate, N-phosphonomethylglycine]", "values": [{"measurement": "concentrations of glyphosate at which growth inhibition was observed", "setting": "[1]", "result": "> 250", "unit": "µg/mL"}, {"measurement": "concentrations of glyphosate at which no growth inhibition was observed", "setting": "[1]", "result": "< 250", "unit": "µg/mL"}, {"measurement": "Melanization", "setting": "[2]; 62.5 μg/ml glyphosate", "result": 10, "unit": "days"}, {"measurement": "Melanization", "setting": "[2]; 125 μg/ml glyphosate", "result": 13, "unit": "days"}, {"measurement": "Melanization", "setting": "[2]; 250 μg/ml glyphosate", "result": 15, "unit": "days"}, {"measurement": "melanization state of culture", "setting": "[2]; grown 10 days in minimal media, 62.5 μg/ml glyphosate", "result": "heavily melanized"}, {"measurement": "absorption value", "setting": "[3]; 0.12 μg/ml glyphosate, 1 mM L-dopa, day 3, 270λ, control without compound 0.425", "result": 0.359}, {"measurement": "concentration of glyphosate at which an absorption signal could be detected", "setting": "[3]; day 3, 1 mM L-dopa, room temperature, 270λ", "result": 39, "unit": "µg/mL"}, {"measurement": "concentrations of glyphosate that continued to inhibit melanin formation", "setting": "[3]; day 20, 1 mM L-dopa, room temperature", "result": "≥ 31.3", "unit": "µg/mL"}, {"measurement": "Mean survival", "setting": "[4]; 0.75 mg/day glyphosate i.p. protocol, control 20.4±1.31 days, p=0.049", "result": "26.8 ± 3.55", "unit": "days"}, {"measurement": "Mean survival time and standard deviation by Kaplan-Meier analysis", "setting": "[4]; 1.5 mg/day glyphosate i.p. for three days, control 15.9±1.57 days, p=0.001", "result": "25.7 ± 2.36", "unit": "days"}, {"measurement": "survival advantage", "setting": "[4]; ad lib water containing 2 mg/ml glyphosate", "result": "no survival advantage"}, {"measurement": "survival advantage", "setting": "[4]; ad lib water containing 10 mg/ml glyphosate", "result": "no survival advantage"}, {"measurement": "Log10 CFUs from lung homogenates", "setting": "C. neoformans", "result": "8.62±1.12"}]}]}
